Test results as given in patent publication US4994376A, “Detection of bacteroides gingivalis” (priority 1987, dated 1991).
Where two headings read alike, the source gives them in different places.

Key:
Assay type in all cases: biochemical
S. sanguis = details: β-naphthylamine liberated after 60 minutes, 37° C.
Procedure, shortened: (§1)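 Readout: absorbance at 525 nm (or visual match to standard solutions) after diazo coupling with Fast Garnet GBC. Substrate N-CBz-glycyl-glycyl-L-arginine-β-naphthylamide, 1 h, 37° C. Values = nmol β-naphthylamine released per 60 min; no-enzyme mixture as control.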

S. mutans = details: strain ATCC 25175; β-naphthylamine liberated after 60 minutes, 37° C.
Procedure, shortened: as §1

Streptococcus mitis = details: β-naphthylamine liberated after 60 minutes, 37° C.
Procedure, shortened: as §1

"Anaerobic vibrio" = details: strain SN2T2; β-naphthylamine liberated after 60 minutes, 37° C.
Procedure, shortened: as §1

Veillonella sp. = details: strain SE1M2; β-naphthylamine liberated after 60 minutes, 37° C.
Procedure, shortened: as §1

Actinomyces israeli = details: β-naphthylamine liberated after 60 minutes, 37° C.
Procedure, shortened: as §1

A. viscosus = details: β-naphthylamine liberated after 60 minutes, 37° C.
Procedure, shortened: as §1

[1] = test system: Actinobacillus actinomycetemcomitans; details: β-naphthylamine liberated after 60 minutes, 37° C.
Procedure, shortened: as §1

Haemophilus aphrophilus = assay: Aminopeptidase activity on β-naphthylamide substrates; details: β-naphthylamine liberated after 60 minutes, 37° C.
Procedure, shortened: as §1

L. fermentum = assay: as above; details: strain ATCC 11581; β-naphthylamine liberated after 60 minutes, 37° C.
Procedure, shortened: as §1

Lactobacillus casei = assay: as above; details: β-naphthylamine liberated after 60 minutes, 37° C.
Procedure, shortened: as §1

A. suis = assay: as above; details: strain ATCC 15557; β-naphthylamine liberated after 60 minutes, 37° C.
Procedure, shortened: as §1

S. salivarius = assay: as above; details: β-naphthylamine liberated after 60 minutes, 37° C.
Procedure, shortened: as §1

A. equuli = assay: as above; details: strain ATCC 19392; β-naphthylamine liberated after 60 minutes, 37° C.
Procedure, shortened: as §1

F. periodonticum = assay: as above; details: strain EK1-15; β-naphthylamine liberated after 60 minutes, 37° C.
Procedure, shortened: as §1

B. corporis = assay: as above; details: strain ATCC 33547; β-naphthylamine liberated after 60 minutes, 37° C.
Procedure, shortened: (§2)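 N-CBz-glycyl-glycyl-L-arginine-β-naphthylamide was hydrolysed for 1 hour at 37 °C, then coupled with Fast Garnet GBC (0.5 mg/ml) in 1M acetic acid buffer, pH 4.2, containing 10% Tween 20. After 15 minutes at room temperature, absorbance was read at 525 nm against a no-enzyme blank; activity is given as nmol β-naphthylamine released per 60 min.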

B. melaninogenicus = assay: as above; details: strain ATCC 25845; β-naphthylamine liberated after 60 minutes, 37° C.
Procedure, shortened: as §2

C. sputigena = assay: as above; details: strain ATCC 33123; β-naphthylamine liberated after 60 minutes, 37° C.
Procedure, shortened: as §2

B. intermedius = assay: as above; details: strain ATCC 25611; β-naphthylamine liberated after 60 minutes, 37° C.
Procedure, shortened: as §2

B. denticola = assay: as above; details: strain ATCC 33185; β-naphthylamine liberated after 60 minutes, 37° C.
Procedure, shortened: as §2

B. levii = details: β-naphthylamine liberated after 60 minutes, 37° C.
Procedure, shortened: as §2

Bacteroides gingivalis = details: β-naphthylamine liberated after 60 minutes, 37° C.
Procedure, shortened: as §2

B. mel. ss. intermedius = details: β-naphthylamine liberated after 60 minutes, 37° C.
Procedure, shortened: as §2

C. ochracea = details: strain ATCC 27872; β-naphthylamine liberated after 60 minutes, 37° C.
Procedure, shortened: as §2

Capnocytophaga sp. = details: strain JD3-5; β-naphthylamine liberated after 60 minutes, 37° C.
Procedure, shortened: as §2

B. asaccharolyticus = details: β-naphthylamine liberated after 60 minutes, 37° C.
Procedure, shortened: as §2

[2] = test system: Capnocytophaga gingivalis; details: strain ATCC 33624; β-naphthylamine liberated after 60 minutes, 37° C.
Procedure, shortened: as §2

B. loescheii = details: β-naphthylamine liberated after 60 minutes, 37° C.
Procedure, shortened: as §2

**Q.** Which Aminopeptidase activity (S. sanguis; strain ATCC 10556) does the source give for NC(=O)[C@@H](N)CCC(=O)O [α-Glu, α -glutamine] here?
**A.** Its Aminopeptidase activity is 0 nmol.

**Q.** What about the Aminopeptidase activity (S. sanguis; strain ATCC 10557) of the same compound?
**A.** The Aminopeptidase activity was 0 nmol.

**Q.** And the Aminopeptidase activity (S. mutans)?
**A.** Its Aminopeptidase activity is 0 nmol.

**Q.** What about the Aminopeptidase activity (Streptococcus mitis; strain ATCC 9815) of the same compound?
**A.** The Aminopeptidase activity was 0 nmol.

**Q.** And the Aminopeptidase activity (Streptococcus mitis; strain ATCC 15909)?
**A.** The Aminopeptidase activity was 0 nmol.

**Q.** What about the Aminopeptidase activity (Streptococcus mitis; strain ATCC 15911) of the same compound?
**A.** Its Aminopeptidase activity is 0 nmol.

**Q.** What about the Aminopeptidase activity (Streptococcus mitis; strain ATCC 15912) of the same compound?
**A.** The Aminopeptidase activity was 0 nmol.

**Q.** And the Aminopeptidase activity ("Anaerobic vibrio")?
**A.** The Aminopeptidase activity was 0 nmol.

**Q.** What about the Aminopeptidase activity (Veillonella sp.) of the same compound?
**A.** The Aminopeptidase activity was 0 nmol.

**Q.** And the Aminopeptidase activity (Actinomyces israeli; strain ATCC 12103)?
**A.** Its Aminopeptidase activity is 0 nmol.

**Q.** And the Aminopeptidase activity (Actinomyces israeli; strain DK2-3)?
**A.** The Aminopeptidase activity was 0 nmol.

**Q.** And the Aminopeptidase activity (A. viscosus; strain ATCC 19246)?
**A.** The Aminopeptidase activity was 0 nmol.

**Q.** And the Aminopeptidase activity (A. viscosus; strain T14V)?
**A.** The Aminopeptidase activity was 0 nmol.

**Q.** And the Aminopeptidase activity ([1]; strain 67)?
**A.** The Aminopeptidase activity was 0 nmol.

**Q.** And the Aminopeptidase activity ([1]; strain 75)?
**A.** Its Aminopeptidase activity is 0 nmol.

**Q.** And the Aminopeptidase activity ([1]; strain ATCC 29523)?
**A.** Its Aminopeptidase activity is 0 nmol.

**Q.** And the Aminopeptidase activity ([1]; strain NCTC 9709)?
**A.** The Aminopeptidase activity was 0 nmol.

**Q.** What about the Aminopeptidase activity ([1]; strain Y4) of the same compound?
**A.** The Aminopeptidase activity was 0 nmol.

**Q.** And the Aminopeptidase activity (Haemophilus aphrophilus; strain ATCC 13252)?
**A.** Its Aminopeptidase activity is 0 nmol.

**Q.** What about the Aminopeptidase activity (Haemophilus aphrophilus; strain ATCC 19415) of the same compound?
**A.** The Aminopeptidase activity was 0 nmol.

**Q.** What about the Aminopeptidase activity (Haemophilus aphrophilus; strain NCTC 5908) of the same compound?
**A.** Its Aminopeptidase activity is 0 nmol.

**Q.** What about the Aminopeptidase activity (L. fermentum) of the same compound?
**A.** Its Aminopeptidase activity is 0 nmol.

**Q.** And the Aminopeptidase activity (Lactobacillus casei; strain ATCC 7469)?
**A.** Its Aminopeptidase activity is 0 nmol.

**Q.** And the Aminopeptidase activity (Lactobacillus casei; strain ATCC 11578)?
**A.** Its Aminopeptidase activity is 3 nmol.

**Q.** What about the Aminopeptidase activity (Lactobacillus casei; strain ATCC 11582) of the same compound?
**A.** Its Aminopeptidase activity is 3 nmol.

**Q.** And the Aminopeptidase activity (A. suis)?
**A.** Its Aminopeptidase activity is 0 nmol.

**Q.** What about the Aminopeptidase activity (S. salivarius; strain ATCC 9759) of the same compound?
**A.** The Aminopeptidase activity was 0 nmol.

**Q.** What about the Aminopeptidase activity (S. salivarius; strain ATCC 25975) of the same compound?
**A.** The Aminopeptidase activity was 0 nmol.

**Q.** And the Aminopeptidase activity (A. equuli)?
**A.** The Aminopeptidase activity was 0 nmol.

**Q.** What about the Aminopeptidase activity (F. periodonticum) of the same compound?
**A.** Its Aminopeptidase activity is 0 nmol.

**Q.** And the Aminopeptidase activity (B. corporis)?
**A.** The Aminopeptidase activity was 0 nmol.

**Q.** And the Aminopeptidase activity (B. melaninogenicus)?
**A.** Its Aminopeptidase activity is 1 nmol.

**Q.** What about the Aminopeptidase activity (C. sputigena) of the same compound?
**A.** The Aminopeptidase activity was 7 nmol.

**Q.** And the Aminopeptidase activity (B. intermedius)?
**A.** The Aminopeptidase activity was 0 nmol.

**Q.** And the Aminopeptidase activity (B. denticola)?
**A.** The Aminopeptidase activity was 0 nmol.

**Q.** What about the Aminopeptidase activity (B. levii; strain 18-1-5) of the same compound?
**A.** The Aminopeptidase activity was 0 nmol.

**Q.** And the Aminopeptidase activity (B. levii; strain 18-1-8)?
**A.** Its Aminopeptidase activity is 2 nmol.

**Q.** What about the Aminopeptidase activity (Bacteroides gingivalis; strain 9-14K-1) of the same compound?
**A.** The Aminopeptidase activity was 0 nmol.

**Q.** What about the Aminopeptidase activity (Bacteroides gingivalis; strain 11-1-2) of the same compound?
**A.** The Aminopeptidase activity was 0 nmol.

**Q.** And the Aminopeptidase activity (Bacteroides gingivalis; strain 381)?
**A.** The Aminopeptidase activity was 0 nmol.

**Q.** What about the Aminopeptidase activity (Bacteroides gingivalis; strain 1021) of the same compound?
**A.** Its Aminopeptidase activity is 0 nmol.

**Q.** And the Aminopeptidase activity (Bacteroides gingivalis; strain ATCC 33277)?
**A.** The Aminopeptidase activity was 1 nmol.

**Q.** What about the Aminopeptidase activity (Bacteroides gingivalis; strain FAYE 19m-1) of the same compound?
**A.** The Aminopeptidase activity was 0 nmol.

**Q.** And the Aminopeptidase activity (B. mel. ss. intermedius; strain ATCC 25261)?
**A.** The Aminopeptidase activity was 0 nmol.

**Q.** And the Aminopeptidase activity (B. mel. ss. intermedius; strain ATCC 33563)?
**A.** Its Aminopeptidase activity is 0 nmol.

**Q.** And the Aminopeptidase activity (B. mel. ss. intermedius; strain NCTC 9336)?
**A.** The Aminopeptidase activity was 0 nmol.

**Q.** What about the Aminopeptidase activity (C. ochracea) of the same compound?
**A.** Its Aminopeptidase activity is 5 nmol.

**Q.** What about the Aminopeptidase activity (Capnocytophaga sp.) of the same compound?
**A.** Its Aminopeptidase activity is 0 nmol.

**Q.** And the Aminopeptidase activity (B. asaccharolyticus; strain 536B)?
**A.** Its Aminopeptidase activity is 0 nmol.

**Q.** What about the Aminopeptidase activity (B. asaccharolyticus; strain ATCC 18569) of the same compound?
**A.** Its Aminopeptidase activity is 0 nmol.

**Q.** What about the Aminopeptidase activity (B. asaccharolyticus; strain ATCC 25260) of the same compound?
**A.** Its Aminopeptidase activity is 0 nmol.

**Q.** And the Aminopeptidase activity (B. asaccharolyticus; strain ATCC 27067)?
**A.** The Aminopeptidase activity was 0 nmol.

**Q.** What about the Aminopeptidase activity (B. asaccharolyticus; strain NY446) of the same compound?
**A.** Its Aminopeptidase activity is 0 nmol.

**Q.** And the Aminopeptidase activity [2]?
**A.** Its Aminopeptidase activity is 5 nmol.

**Q.** What about the Aminopeptidase activity (B. loescheii; strain ATCC 15930) of the same compound?
**A.** Its Aminopeptidase activity is 0 nmol.

**Q.** What about the Aminopeptidase activity (B. loescheii; strain VPI4196) of the same compound?
**A.** The Aminopeptidase activity was 0 nmol.
